{"source": "patent US5420288A", "about": "“Electroluminescent device comprising oxadiazole compounds luminescent material, oxadiazole compounds for the device, and method of producing oxadiazole compounds” (Ricoh Company, Ltd., priority 1992, dated 1995)", "origin": "cited, not measured here", "conditions": "conventional materials, background", "data": [{"smiles": "CC(C)(C)c1ccc(-c2nnc(-c3ccc(-c4ccccc4)cc3)o2)cc1", "note": "[2-(4-tert-butylphenyl)-5-(p-biphenyl)-1,3,4-oxadiazole]", "values": [{"measurement": "film-forming properties / crystallization / stability", "result": "easily crystallized and lacks in the stability"}]}]}
